Results from patent publication US20260144769A1, “4-PHENYLBUTYRATE RESTORED GABA UPTAKE AND REDUCED SEIZURES IN SLC6A1 VARIANT-MEDIATED DISORDERS” (Vanderbilt University, priority 2022, published 2026).

What was measured:
[1] = tested on: GAT-1 in patient astrocytes; assay: 3H GABA uptake, patient iPSC derived astrocytes; format: cell-based, human; details: PBA 2 mM
Method: Live images of human neural progenitor cells (NPCs), astrocytes and GABAergic inhibitory neurons differentiated from the human induced pluripotent stem cells (iPSCs) on the day of experiment. […] The DMSO treated corrected or patient cells was taken as 1. […] GABA flux was measured after 30 min transport at room temperature. The influx of GABA, expressed in pmol/μg protein/min, was averaged from duplicates for each condition and for each transfection. The average counting was DMSO treated condition taken as 1. In FIG. 5B, FIG. 5D and FIG. 5F, 966 stands for CI-966 (50 μM) and 711 stands for NNC-711 (35 μM) that was applied 30 min to the astrocytes transfected with the wildtype GAT-1^YFP before preincubation and removed during preincubation. In FIGS. 5B and D, ***p<0.001 vs. corrected DMSO treated. § § <0.01, § § § p<0.001 vs. patient DMSO treated. […] In FIGS. 5B-E, n=4-8 batches of cells. In FIG. 5F, n=4-5 different transfections). Unpaired t test was used for FIG. 5C and FIG. 5E. […] Values were expressed as mean±S.E.M.). […]
Briefly, cells were cultured in […] dishes for 3 days before the GABA uptake experiment in DMEM with 10% fetal bovine serum and 1% penicillin/streptomycin. […] Glacial acetic acid was added, and lysates were then determined on a liquid scintillator with QuantaSmart. […]

[2] = cited from earlier work

With `O=C(O)CCCc1ccccc1` [PBA, 4-phenylbutyric acid] as the compound, how does the “GABA uptake normalized to its DMSO treated” value ([1]; 24 hrs) read?
Its value is 1.387±0.08.

What about the “GABA uptake of the patient cells as % of the corrected cells” value ([1]; 24 hrs (57% with DMSO)) of the same compound?
The value was 81%.

And the oral bioavailability [2]?
The oral bioavailability was “orally bioavailable”.
